Laboratory results taken from US12493045B2, “Multi-target crosslinkers and uses thereof” (The Regents of the University of California, priority 2018, dated 2025).
Where a chain is given by its changes, count along the chain named.

Assays:
[1] = system: E. coli whole cell lysate; test: CXMS analysis of cross-linked E. coli whole cell lysate; settings: 10 mg/mL lysate, 40 mM crosslinker, RT 2 h
Method: To determine whether NHSF could be used in complex biological samples to generate novel cross-links for MS identification, we applied BS2G and NHSF on E. coli whole cell lysate.
Preparation of E. coli cell lysate. DH10β bacterial cells were cultured overnight. After cells were harvested by centrifugation, cell pellets were washed twice with PBS. Cells were resuspended with lysis buffer (50 mM Hepes, pH 8.3, 150 mM NaCl, 1×EDTA-free Complete Protease Inhibitor Cocktail) and incubate with lysozyme (1 mg/mL), DNase I (0.5 mg/mL) and RNase A (0.1 mg/mL) at 4° C. for 30 min. Cell lysates were sonicated for 3 min with 30% energy and filtrated with Amicon-0.5 ml 10K unit for 3 times.
Peptide and protein cross-linking. […] E. coli cell lysate: 20 uL lysate (10 mg/mL protein, 50 mM Hepes, pH 8.3, 150 mM NaCl) was incubate with 40 mM BS2G or 40 mM NHSF at RT for 2 h. BS2G cross-linking reaction was terminated at RT by adding 100 mM ammonium bicarbonate and incubating for 20 min. NHSF cross-linking reaction was terminated at RT by adding 100 mM DTT and incubating for 20 min.
Protein digestion. All protein samples were precipitated by six volumes of acetone at −20° C. for 30 min. Precipitated proteins were dried in air and resuspended in 8 M urea, 100 mM Tris, pH 8.5. […]

[2] = biological target: T1, Glutathione S-Transferase (GST) (Escherichia coli, UniProt P0A9D2); test: Cross-linking of GST (SDS-PAGE, Western blot, CXMS)
T1 sequence (P0A9D2 1-201): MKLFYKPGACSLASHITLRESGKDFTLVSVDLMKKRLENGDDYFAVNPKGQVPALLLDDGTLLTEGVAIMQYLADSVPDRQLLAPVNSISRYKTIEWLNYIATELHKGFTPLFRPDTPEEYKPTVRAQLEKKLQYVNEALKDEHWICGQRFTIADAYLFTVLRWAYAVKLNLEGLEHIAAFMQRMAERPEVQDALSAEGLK
Method: NHSF Cross-links Glutathione S-Transferase. To further validate the cross-linking specificity of NHSF, the homodimeric Glutathione S-Transferase (GST) was cross-linked by NHSF or BS2G.
Peptide and protein cross-linking. […] BS2G cross-linking reaction was terminated at RT by adding 20 mM ammonium bicarbonate and incubating for 20 min. NHSF cross-linking reaction was terminated at RT by adding 10 mM Dithiothreitol (DTT) and incubating for 20 min. GST: In a 20 μL reaction, 10 μM GST (23 kDa, in PBS buffer, pH 7.5) was cross-linked at RT for 1 h with 0.5 mM BS2G or 0.5 mM NHSF, which corresponded to a 1:50 protein:cross-linker molar ratio. The cross-linking reactions were similarly terminated as described in the BSA section above.

[3] = biological target: Bovine Serum Albumin (BSA) (Bos taurus, UniProt P02769); test: CXMS analysis of cross-linked BSA
Chain of Bovine Serum Albumin (BSA) (P02769 25-607): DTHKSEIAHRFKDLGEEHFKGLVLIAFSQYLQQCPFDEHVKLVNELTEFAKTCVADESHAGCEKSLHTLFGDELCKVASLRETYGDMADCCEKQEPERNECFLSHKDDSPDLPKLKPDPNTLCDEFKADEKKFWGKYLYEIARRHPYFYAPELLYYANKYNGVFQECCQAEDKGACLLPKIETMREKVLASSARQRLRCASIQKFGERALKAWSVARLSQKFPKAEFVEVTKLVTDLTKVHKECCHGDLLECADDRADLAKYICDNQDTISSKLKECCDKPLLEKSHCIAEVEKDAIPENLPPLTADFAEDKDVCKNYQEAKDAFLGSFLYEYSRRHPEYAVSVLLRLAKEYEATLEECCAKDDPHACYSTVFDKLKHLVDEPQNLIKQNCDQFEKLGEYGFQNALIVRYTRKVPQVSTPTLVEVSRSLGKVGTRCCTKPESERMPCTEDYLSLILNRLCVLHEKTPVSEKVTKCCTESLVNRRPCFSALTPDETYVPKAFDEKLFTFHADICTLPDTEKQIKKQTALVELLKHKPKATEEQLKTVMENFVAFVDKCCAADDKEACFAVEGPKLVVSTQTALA
Method: NHSF Cross-links Bovine Serum Albumin.
BSA: In a 20 μL reaction, 10 μM BSA (69 kDa, in PBS buffer, pH 7.5) was cross-linked at RT for 1 h with 1 mM BS2G or 1 mM NHSF, which corresponded to a 1:100 protein:cross-linker molar ratio. BS2G cross-linking reaction was terminated at RT by adding 20 mM ammonium bicarbonate and incubating for 20 min. NHSF cross-linking reaction was terminated at RT by adding 10 mM Dithiothreitol (DTT) and incubating for 20 min.
Protein digestion. All protein samples were precipitated by six volumes of acetone at −20° C. for 30 min. Precipitated proteins were dried in air and resuspended in 8 M urea, 100 mM Tris, pH 8.5. After reduction with 2 mM DTT for 20 min and alkylation with 10 mM iodoacetamide for 15 min in the dark, samples were diluted to 2 M urea with 100 mM Tris, pH 8.5, and digested with trypsin (at 50:1 protein:enzyme ratio) at 37° C. for 16 h. Digestion was stopped by adding formic acid to 5% final concentration, and digested peptides were desalted with stagetip.
Tandem mass spectrometric analysis. Mass spectrometry experiments were performed using an Orbitrap Fusion Lumos™ instrument (ThermoFisher, San Jose, CA) coupled with an UltiMate™ 3000 nano LC. Mobile phase A and B were water and acetonitrile, respectively, with 0.1% formic acid. […]

[4] = system: peptide 7KR (Ac-AAAKAAR); test: Reaction of crosslinker with model peptide 7KR (mass spectra); type: biochemical; settings: 10 μM peptide, 10 μM crosslinker, PBS pH 7.5, RT 1 h
From the text: Reaction of NHSF with Model Peptide. We first tested the reactivity of NHSF with a model peptide (Ac-AAAKAAR (SEQ ID NO:1), 7KR) with a single Lys as a reactive group, and compared its reactivity towards BS2G (bis(sulfosuccinimidyl) 2,2,4,4-glutarate-d4, FIG. 2A), a commercial NHS-based homo-bifunctional crosslinker of similar length. […] Owing to the low reactivity of sulfonyl-fluorides and the lack of reactive groups in 7KR, additional reaction was not observed with the Arg sidechain.
Peptide and protein cross-linking.

[5] = system: SSB-19(3×) or SSB-ATC(4×) complex; test: SSB protein-DNA oligo crosslinking (denaturing TBE-urea gel shift); type: biochemical; settings: 19(3×) or ATC(4×) DNA, 1 mM crosslinker, UV 365 nm 15 min
[6] = system: HEK293T cells; test: Toxicity on incubation with HEK293T cells; type: cell-based, mammalian; settings: 0.6 mM HoQM incubated for different time duration (4 or 8 hr)
[7] = biological target: T2, 14-3-3 WT in E. coli cell lysate (Homo sapiens, UniProt P63104); test: Crosslinking of 14-3-3 WT in E. coli cell lysate (Western blot); type: biochemical
T2 sequence (P63104 1-245): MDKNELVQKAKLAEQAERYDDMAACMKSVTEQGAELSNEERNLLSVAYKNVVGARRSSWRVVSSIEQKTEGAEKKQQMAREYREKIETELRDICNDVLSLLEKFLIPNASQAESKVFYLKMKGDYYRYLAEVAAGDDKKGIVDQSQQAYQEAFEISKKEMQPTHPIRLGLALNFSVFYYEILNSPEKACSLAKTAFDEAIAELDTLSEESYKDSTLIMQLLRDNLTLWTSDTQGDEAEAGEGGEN
From the text: (§1) Following crosslinking, NHQM results in a short and rigid linkage, which requires close contact of target residue pairs for effective crosslinking. We therefore tested whether this feature of NHQM could be used to readily determine protein dimerization in vitro and in cell lysates. It has been reported that three mutations (^12LAE^14→^12QQR^14) of 14-3-3 disrupt the dimer interface to form a monomer, leading to a distinct function from WT 14-3-3, such as chaperone activity.^[17] [18] However, previously the 14-3-3(QQR) mutant was isolated from cells and then characterized as a monomer using size exclusion chromatography. This in vitro process is tedious, and the results may not represent what occur in the cellular environment. We first treated purified 14-3-3 WT and QQR mutant with various amounts of NHQM and illuminated with UV light of 365 nm (FIGS. 9A-9B). […] We then applied NHQM directly to cell lysates of E. coli cells expressing either 14-3-3 WT or its QQR mutant, without isolating the 14-3-3 proteins.

[8] = biological target: glutathione transferase (GST) expressed in HEK 293T cells (Escherichia coli, UniProt P0A9D2); test: GST crosslinking in mammalian cells (Western blot); type: cell-based; settings: 4 mM NHQM, UV 365 nm 15 min
[9] = biological target: T3, WT 14-3-3 protein (Homo sapiens, UniProt P63104); test: Tandem MS (CXMS) of crosslinked 14-3-3; type: biochemical
T3 sequence (P63104 1-245): T2 sequence (P63104 1-245)
Method: Tryptic digestion of cross-linked proteins. Protein digestion was carried out by following a procedure described previously.^[28] Briefly, after crosslinking protein samples were quenched by adding 100 mM Tris-HCI, pH 7.4 for 15 min. […] Protein was collected by centrifugation for 10 min at 15,000 g. […] Digestion was terminated by adding formic acid at final concentration 5% (v/v). Digested peptides were desalted with C18 ZipTip, and eluted peptides were dried down with SpeedVac.
Mass spectrometry. Digested peptides were dissolved in 200 mM NH4HCO3 after clean-up and then subject to tandem mass spectrometry on a Thermo Q-Exactive Orbitrap. Crosslinked peptides. Peptides were separated by nano-LC Ultimate 3000 high-performance liquid chromatography system using an Acclaim PepMap C18 column (Thermo Scientific). […] The Q-Exactive mass spectrometer was operated in data-dependent mode with one full MS scan at R=70,000 (m/z=200) followed by ten HCD MS/MS scans at R=17,500 (m/z=200) using a stepped normalized collision energy of 28, 30, 35 eV. The AGC targets for the MS1 and MS2 scans were 3×10^6 and 1×10^5, respectively, and the maximum injection time for MS1 was 250 ms, and for MS2 was 200 ms. Precursors of the +1, +6 or above, or unassigned charge states were rejected; exclusion of isotopes was enabled; dynamic exclusion was set to 30 s. The crosslinking mass spectra were analyzed with pLink 2.3.^[29]

[10] = biological target: T4, 14-3-3 QQR mutant in E. coli cell lysate (Homo sapiens, UniProt P63104, A13Q/E14R/L12Q); test: Crosslinking of 14-3-3 QQR mutant in E. coli cell lysate (Western blot); type: biochemical
T4 construct: expressed in transfected cells; host or cells: E. coli, cell lysate
T4 sequence (P63104 1-245 L12Q/A13Q/E14R): T2 sequence (P63104 1-245) with L12Q, A13Q, E14R
From the text: as §1

[11] = biological target: endogenous EGFR in MCF7 cells (Homo sapiens, UniProt P00533); test: Crosslinking of endogenous EGFR on mammalian cell surface (Western blot); type: cell-based; settings: BS^3 as positive control
Chain of endogenous EGFR in MCF7 cells (P00533 25-1210): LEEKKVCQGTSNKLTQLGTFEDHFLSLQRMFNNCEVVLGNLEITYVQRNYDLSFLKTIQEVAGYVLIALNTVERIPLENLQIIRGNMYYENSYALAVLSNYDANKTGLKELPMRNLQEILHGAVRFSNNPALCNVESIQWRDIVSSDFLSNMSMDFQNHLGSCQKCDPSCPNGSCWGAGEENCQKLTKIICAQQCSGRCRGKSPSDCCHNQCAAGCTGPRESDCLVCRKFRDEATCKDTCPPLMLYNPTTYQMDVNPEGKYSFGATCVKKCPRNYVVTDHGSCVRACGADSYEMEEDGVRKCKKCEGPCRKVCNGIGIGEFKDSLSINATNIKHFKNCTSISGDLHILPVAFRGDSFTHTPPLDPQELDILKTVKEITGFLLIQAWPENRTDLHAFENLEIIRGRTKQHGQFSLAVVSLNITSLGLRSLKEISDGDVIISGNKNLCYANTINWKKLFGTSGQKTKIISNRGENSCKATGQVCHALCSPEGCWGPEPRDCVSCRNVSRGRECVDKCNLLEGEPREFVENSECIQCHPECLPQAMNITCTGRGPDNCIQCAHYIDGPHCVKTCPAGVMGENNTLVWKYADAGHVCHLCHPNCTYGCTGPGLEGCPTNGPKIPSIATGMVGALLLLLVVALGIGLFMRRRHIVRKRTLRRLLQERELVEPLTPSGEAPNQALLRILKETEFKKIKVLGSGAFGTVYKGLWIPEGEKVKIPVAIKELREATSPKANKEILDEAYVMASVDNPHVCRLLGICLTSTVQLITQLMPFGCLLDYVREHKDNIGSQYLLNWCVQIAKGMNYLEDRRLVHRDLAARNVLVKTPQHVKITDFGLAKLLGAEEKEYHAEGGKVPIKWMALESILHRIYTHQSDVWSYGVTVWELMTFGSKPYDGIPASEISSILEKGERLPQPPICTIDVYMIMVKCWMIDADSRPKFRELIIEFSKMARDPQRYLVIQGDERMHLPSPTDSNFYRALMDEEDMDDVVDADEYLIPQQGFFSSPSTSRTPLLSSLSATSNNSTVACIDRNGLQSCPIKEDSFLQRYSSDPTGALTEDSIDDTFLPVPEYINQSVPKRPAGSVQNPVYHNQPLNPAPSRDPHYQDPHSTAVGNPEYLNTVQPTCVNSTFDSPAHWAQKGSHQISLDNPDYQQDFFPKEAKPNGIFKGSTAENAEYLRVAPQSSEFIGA

[12] = biological target: T5, 14-3-3 protein (WT homodimer) (Homo sapiens, UniProt P63104); test: Dimeric crosslinking of 14-3-3 WT in vitro (SDS-PAGE); type: biochemical
T5 sequence (P63104 1-245): T2 sequence (P63104 1-245)
From the text: We initially designed and synthesized a heterobifunctional crosslinker NHQM containing an NHS ester and a photocaged ortho-quinone methide (o-QM) (FIG. 7A). Two fluorines were installed at the methyl group ortho to the phenolic hydroxyl group, which was photocaged by an o-nitrobenzyl group. When in proximity to proteins, the reactive NHS ester will react with exposed Lys residues, planting the photocaged o-QM next to residues on interaction partners. UV release of o-nitrobenzyl induces elimination of a fluoride ion to generate o-QM spontaneously, which will subsequently crosslink with nearby nucleophilic side chains (FIG. 7A). […] We further studied the crosslinking rate by varying the duration of UV treatment immediately after addition of NHQM.
as §1
NHQM mediated 14-3-3 crosslinking in vitro.
(§2) Utilizing NHQM to differentiate 14-3-3 dimer versus monomer.
HoQM mediated 14-3-3 crosslinking in vitro.

[13] = system: SSB protein with viral M13mp18 DNA; test: SSB protein-M13mp18 DNA crosslinking (denaturing TBE-urea gel shift); type: biochemical; settings: 1 mM NHQM, UV 365 nm 15 min
Method: that are reported to interact with SSB^[24] [25] The SSB-DNA complex was treated with NHQM and UV activation, and analyzed by denaturing TBE-urea gel shift assay to detect covalent crosslinking between SSB and DNA. […] We further investigated protein-DNA crosslinking by incubating a natural single stranded circular viral DNA M13mp18 with the SSB protein.^[26] As shown in FIG. 21B (also FIGS. 22A-22B), the M13mp18 control DNA run as two isoforms in the denatured TBE-Urea gel due to its large size, a major form remained in the well and a minor form migrating in the gel.

[14] = biological target: Thioredoxin (Trx) (Escherichia coli, UniProt P0AA25); settings: 1 mM or 10 mM NHQM, UV 365 nm 15 min, E. coli cell lysate
Chain of Thioredoxin (Trx) (P0AA25 whole entry): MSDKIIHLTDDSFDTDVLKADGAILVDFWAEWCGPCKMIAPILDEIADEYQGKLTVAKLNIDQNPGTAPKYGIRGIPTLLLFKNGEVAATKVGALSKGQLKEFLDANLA
Method: We started by testing NHQM's ability to crosslink interacting proteins in E. coli cell lysates. […] We expressed His-tagged Trx in E. coli cells, and then applied NHQM to the cell lysate followed by UV activation.
Plasmid pBAD-Trx was transformed into BL21(DE3) E. coli cells, and the Trx protein expression was carried out following procedures described above except that the cell culture volume was decreased to 20 mL. After protein expression, the cells were harvested and resuspended in 15 mL 50 mM sodium phosphate buffer containing 200 mM NaCI, pH 7.5. The cells were broken by sonification. 15 μL cell suspension were taken and added with 0, 1, or 10 mM NHQM and incubated at RT for 15 min, followed by UV illumination at wavelength 365 nm for another 15 min. The reaction was then treated by adding 100 mM Tris-HCI, pH 7.5 and incubated at RT for 15 min. The samples were then quickly treated with SDS loading dye containing 100 mM DTT, boiled at 95° C. for 5 min, and then analyzed with Western blot using anti-His antibody.

[15] = biological target: T6, 14-3-3 expressed in HEK293T cells (Homo sapiens, UniProt P63104); test: 14-3-3 crosslinking in mammalian cells (Western blot); settings: 4 mM NHQM, UV 365 nm 15 min
T6 sequence (P63104 1-245): T2 sequence (P63104 1-245)
Method: We subsequently tested NHQM's crosslinking ability in mammalian cells. We incubated NHQM with live mammalian cells expressing the dimeric glutathione transferase (GST)^[9] or 14-3-3. […] Therefore, we tested using NHQM to crosslink proteins on mammalian cell surfaces. […] In addition, we further explored whether NHQM could probe endogenous mammalian proteins at physiologically relevant conditions. With this aim, we cultured MCF7 cells and treated them with or without NHQM, with or without UV, using the amine-reactive crosslinker bissulfosuccinimidyl suberate (BS^3) as a positive control.
Plasmid pCDNA3.1-14-3-3, pCDNA3.1-GST, or pCDNA3.1-EGFR (2 μg each) was transfected into one well of 6-well plate of HEK293T cells, respectively. After transfection, the cells were cultured at 37° C. for additional 24 hr. The cells were harvested and washed with PBS, pH 7.4 for one time, followed by resuspension in 50 μL PBS, pH 7.4. […] The samples were then quickly treated with 2×SDS loading dye containing 100 mM DTT, boiled at 95° C. for 5 mins, and analyzed by running Western blot using an anti-His antibody.
Plasmid pCDNA3.1-14-3-3 (2 μg) was transfected into one well of 6-well plate of HEK293T cells. […] The samples were then quickly treated with 2×SDS loading dye containing 100 mM DTT, boiled at 95° C. for 5 min, and analyzed with Western blot using an anti-His antibody.

[16] = biological target: T7, 14-3-3(QQR) mutant (Homo sapiens, UniProt P63104, A13Q/E14R/L12Q); test: Crosslinking of monomeric 14-3-3(QQR) mutant in vitro (SDS-PAGE); type: biochemical; settings: 0-0.4 mM NHQM, UV 365 nm 15 min
T7 sequence (P63104 1-245 L12Q/A13Q/E14R): T2 sequence (P63104 1-245) with L12Q, A13Q, E14R
From the text: as §1, §2

[17] = biological target: epidermal growth factor receptor (EGFR) (Homo sapiens, UniProt P00533); test: Crosslinking of overexpressed EGFR on HEK293T cells (Western blot); settings: HEK293T overexpressing EGFR, 4 mM NHQM, UV 365 nm 15 min
Chain of epidermal growth factor receptor (EGFR) (P00533 25-1210): as the sequence (P00533 25-1210) above
Method: We subsequently tested NHQM's crosslinking ability in mammalian cells. […] Therefore, we tested using NHQM to crosslink proteins on mammalian cell surfaces.
Plasmid pCDNA3.1-14-3-3, pCDNA3.1-GST, or pCDNA3.1-EGFR (2 μg each) was transfected into one well of 6-well plate of HEK293T cells, respectively. After transfection, the cells were cultured at 37° C. for additional 24 hr. The cells were harvested and washed with PBS, pH 7.4 for one time, followed by resuspension in 50 μL PBS, pH 7.4. The cells were either added nothing or added with 4 mM NHQM and incubated at RT for 15 min. Then the cells were illuminated with or without UV at wavelength 365 nm for another 15 min. After that, the reaction was treated by adding 100 mM Tris-HCI, pH 7.5 and incubated at RT for 15 min. The samples were then quickly treated with 2×SDS loading dye containing 100 mM DTT, boiled at 95° C. for 5 mins, and analyzed by running Western blot using an anti-His antibody.

SMILES: [2H]C([2H])(CC(=O)ON1C(=O)CC(S(=O)(=O)O)C1=O)C([2H])([2H])C(=O)ON1C(=O)CC(S(=O)(=O)O)C1=O (stereo not drawn) [BS2G, bis(sulfosuccinimidyl) 2,2,4,4-glutarate-d4]
- Inter-linked peptides identified [1]: 106
- Cross-linked peptides identified by MS ([2]; 10 μM GST, 0.5 mM crosslinker, RT 1 h): 15
- Cross-links incompatible with the GST structure ([2]; out of 15 cross-links, PDB 1N2A): 6
- Inter-peptide cross-links identified by MS ([3]; 10 μM BSA, 1 mM crosslinker, RT 1 h): 18
- Cross-linked peptides exceeding the distance limit ([3]; limit of 20 Å Cα-Cα, BSA structure PDB 3V03): four
- Products detected after reaction with peptide 7KR [4]: both a mono-linked peptide as well as the cross-linked dimer

SMILES: O=C(CCCCCCC(=O)ON1C(=O)CC(S(=O)(=O)O)C1=O)ON1C(=O)CC(S(=O)(=O)O)C1=O (stereo not drawn) [BS^3, bissulfosuccinimidyl suberate, reference compound]
- SSB-DNA crosslinking (upshifted band) [5]: did not result in SSB-DNA crosslinking

SMILES: O=C(c1ccc(OCc2ccccc2[N+](=O)[O-])c(C(F)F)c1)N1CCN(C(=O)c2ccc(OCc3ccccc3[N+](=O)[O-])c(C(F)F)c2)CC1 [HoQM]
- Toxicity to HEK293T cells [6]: without apparent toxicity

SMILES: O=C(ON1C(=O)CCC1=O)c1ccc(OCc2ccccc2[N+](=O)[O-])c(C(F)F)c1 [NHQM]
- Dimeric crosslinking of 14-3-3 WT in cell lysate [7]: crosslinked as dimer
- Efficiency of dimeric crosslinking of GST in live mammalian cells [8]: < 10%
- Pairs of crosslinked peptides identified ([9]; crosslinked 14-3-3, tandem MS): Eight
- Residues crosslinked with Lys ([9]; crosslinked 14-3-3, tandem MS): Arg, Asn, Gln, Glu, Lys, or Ser
- Cα-Cα distance of the crosslink exceeding the limit ([9]; limit ~22 Å): 23.7 Å
- SSB-DNA crosslinking (upshifted band) [5]: upshifted band was only observed for the SSB-19(3×) or SSB-ATC(4×) complex treated with both NHQM and UV light
- Dimeric crosslinking of 14-3-3 QQR mutant in cell lysate [10]: not the QQR mutant
- Crosslinking efficiency of endogenous EGFR [11]: comparable to the commercial crosslinker BS^3
- Crosslinked dimer of 14-3-3 WT versus crosslinker amount ([12]; 0-0.4 mM NHQM, UV 365 nm 15 min): increased with higher NHQM concentration
- UV exposure at which crosslinking of 14-3-3 could be observed ([12]; 1 mM NHQM, UV 365 nm, SDS-PAGE): 1 min
- Crosslinked dimer of 14-3-3 ([12]; 1 mM crosslinker, with or without UV 365 nm, SDS-PAGE): detected only with addition of NHQM crosslinker and UV illumination
- SSB-M13mp18 crosslinking (upshift of minor form) [13]: only in the presence of both NHQM treatment and UV activation was the minor form of M13mp18 upshifted into the well
- Crosslinking of endogenous proteins to Trx [14]: many endogenous proteins were crosslinked to Trx
- Efficiency of dimeric crosslinking of 14-3-3 in live mammalian cells [15]: < 10%
- Crosslinking of 14-3-3 QQR [16]: remained a monomer even at NHQM concentration up to 0.4 mM
- EGFR dimer on Western blot [17]: EGFR dimer was detected
